The test system of one data set is sodium channel. As to the kind of experiment: Guanidine influx assay (14C-guanidine radiotracer flux, in vitro). It counts as cell-based, human or rat. The conditions noted are these: guanidine influx assay using a known cell line that expresses a sodium channel; activity level class. The procedure, abridged:
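Human or rat sodium channels stably expressed in endogenous or recombinant cells, plated ~100,000 cells/well for 20-24 h at 37 °C. Cells were treated with test agent in low-sodium choline HEPES saline plus aconitine and 14C-guanidine at ambient temperature, washed, and counted by scintillation; IC50 from 4-parameter logistic fit.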

Data set [1] has as its system inactivated state of the channel of interest (sodium channel). The data set can be described thus: Electrophysiological assay (whole cell voltage clamp, in vitro). It counts as cell-based. The following applies: affinity for the inactivated state of the channel of interest. Summed up:
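Whole-cell voltage clamp at ambient temperature on stably transfected cells; CsF-based pipette, pH 7.4 NaCl bath. Current blockade measured at holding potentials of −120 mV (resting, Kr) and one giving 10% availability (inactivated, Ki), held ≥10 s to equilibrate; apparent Kd calculated from fractional block.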

A further data set has as its target CYP3A4 (Homo sapiens, UniProt P08684). As to the kind of experiment: Cytochrome P450 (CYP450) Inhibition Assay, CYP3A4 (Vivid fluorescence, BOMCC substrate). The following applies: human, P450 Baculosomes (recombinant CYP3A4), probe BOMCC (Vivid substrate).

pIC50, pKi: −log10 of the molar value.

CYP3A4, sequence (P08684 whole entry): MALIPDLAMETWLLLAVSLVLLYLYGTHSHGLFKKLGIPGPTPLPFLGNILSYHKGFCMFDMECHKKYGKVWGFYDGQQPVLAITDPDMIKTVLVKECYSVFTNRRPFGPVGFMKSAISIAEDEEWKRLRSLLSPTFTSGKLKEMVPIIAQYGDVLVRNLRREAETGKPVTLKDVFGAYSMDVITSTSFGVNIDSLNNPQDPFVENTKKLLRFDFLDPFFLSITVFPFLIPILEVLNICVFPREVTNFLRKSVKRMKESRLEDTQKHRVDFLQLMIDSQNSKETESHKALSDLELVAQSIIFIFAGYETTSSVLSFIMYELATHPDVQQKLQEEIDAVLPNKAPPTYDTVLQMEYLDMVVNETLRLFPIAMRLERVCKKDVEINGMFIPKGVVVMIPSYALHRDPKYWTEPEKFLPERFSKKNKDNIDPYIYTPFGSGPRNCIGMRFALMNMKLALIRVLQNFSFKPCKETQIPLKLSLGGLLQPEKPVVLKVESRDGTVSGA

On to `O=C1N(C[C@@H]2CCCO2)c2ccccc2C12COc1cc3c(cc12)OCCO3` (stereo partly drawn) [Example 4.43, 1-[(2S)-tetrahydrofuran-2-ylmethyl]-2,3-dihydrospiro[furo[2,3-g][1,4]benzodioxine-8,3′-indol]-2′(1′H)-one], for which the melting point (usually the temperature, or range, at which the solid turns liquid) was in the range of 173 to 175 °C. Moreover, the pIC50 – broadly, the IC50 on a negative log10 scale, so that one unit is a factor of ten – in the data set with sodium channel is 7.00 to 9.00. Also, the pKi (in general, −log10 of the Ki, conventionally taken in molar units) in data set [1] was less than 6.52. Besides, the inhibition (usually the percentage by which the read-out fell short of the control) at 10 µM at CYP3A4 is less than 50%.

Consider `O=C1N(CC2COCCO2)c2ccccc2C12COc1cc3c(cc12)OCCO3` (stereo not shown) [Example 4.45, 1′-(1,4-dioxan-2-ylmethyl)-2,3-dihydrospiro[furo[2,3-g][1,4]benzodioxine-8,3′-indol]-2′(1′H)-one], for which the melting point was 160 to 165 °C. The negative-log IC50 (pIC50) in the data set with sodium channel is 7.00 to 9.00. The compound further showed a pKi in data set [1] of less than 6.52. Moreover, the inhibition at 10 µM on CYP3A4 was less than 50%.

`O=C1N(Cc2ccc3c(c2)OCCO3)c2ccccc2C12COc1cc3c(cc12)OCCO3` (stereo not shown) [Example 4.48, 1-(2,3-dihydro-1,4-benzodioxin-6-ylmethyl)-2,3-dihydrospiro[furo[2,3-g][1,4]benzodioxine-8,3′-indol]-2′(1′H)-one] came in with a melting point of 120 to 123 °C. Further, the pIC50 in the data set with sodium channel was 7.00 to 9.00. Further, in data set [1], the pKi was more than 6.52. Further, the inhibition at 10 µM on CYP3A4 was less than 50%.

In the case of `O=C1N(Cc2ccc(C(F)(F)F)o2)c2ccccc2[C@@]12COc1cc3c(cc12)OCCO3` [Example 4.49, (R)-1′-{[5-(trifluoromethyl)furan-2-yl]methyl}-2,3-dihydrospiro[furo[2,3-g][1,4]benzodioxine-8,3′-indol]-2′(1′H)-one], the melting point lay in the range of 64 to 68 °C. Also, in the data set with sodium channel, the pIC50 is 7.00 to 9.00. The same compound showed a pKi in data set [1] of more than 6.52. Further, the inhibition at 10 µM on CYP3A4 is more than 50%.

Compound `O=C1N(Cc2ccc(C(F)(F)F)o2)c2ccccc2[C@]12COc1cc3c(cc12)OCCO3` [Example 4.50, (S)-1′-{[5-(trifluoromethyl)furan-2-yl]methyl}-2,3-dihydrospiro[furo[2,3-g][1,4]benzodioxine-8,3′-indol]-2′(1′H)-one] displayed a melting point of 53 to 56 °C. Further, the pIC50 in the data set with sodium channel was 7.00 to 9.00. The compound also had a pKi in data set [1] of more than 6.52. In addition, the inhibition at 10 µM on CYP3A4 is more than 50%.

Consider `O=C1N(Cc2ccccn2)c2ccccc2[C@]12COc1cc3c(cc12)OCCO3` [Example 4.51, (S)-1′-(pyridin-2-ylmethyl)-2,3-dihydrospiro[furo[2,3-g][1,4]benzodioxine-8,3′-indol]-2′(1′H)-one], for which the melting point is 144 to 146 °C. Further, the pIC50 with sodium channel was 7.00 to 9.00. The same compound gave a pKi in data set [1] of more than 6.52. Further, the inhibition at 10 µM at CYP3A4 was less than 50%.

Consider `O=C1N(Cc2ccc(C(F)(F)F)o2)c2ccccc2C12COc1cc3c(cc12)OCCCO3` (stereo not shown) [Example 4.54, 1-{[5-(trifluoromethyl)furan-2-yl]methyl}-3,4-dihydro-2H-spiro[furo[2,3-h][1,5]benzodioxepine-9,3′-indol]-2′(1′H)-one], for which the melting point lay within 162 to 164 °C. The pIC50 with sodium channel is 6.00 to 7.00. Further, the pKi in data set [1] was more than 6.52. Also, on CYP3A4, the inhibition at 10 µM was more than 50%.

As for `O=C1N(Cc2ccccn2)c2ccccc2C12COc1cc3c(cc12)OCCCO3` (stereo not shown) [Example 4.55, 1′-(pyridin-2-ylmethyl)-3,4-dihydro-2H-spiro[furo[2,3-h][1,5]benzodioxepine-9,3′-indol]-2′(1′H)-one], the melting point fell in the range of 122 to 123 °C. The pIC50 in the data set with sodium channel is 6.00 to 7.00. For the same compound, in data set [1], the negative-log Ki (pKi) was less than 6.52. For the same compound, at CYP3A4, the inhibition at 10 µM is less than 50%.

With `O=C1N(Cc2ccccn2)c2cccc(-c3ccc(Oc4ccccc4)cc3)c2C12COc1cc3c(cc12)OCCO3` (stereo not shown) [Example 4.103, 4′-(4-phenoxyphenyl)-1′-(pyridin-2-ylmethyl)-2,3-dihydrospiro[furo[2,3-g][1,4]benzodioxine-8,3′-indol]-2′(1′H)-one], the melting point was in the range of 196 to 199 °C. The pIC50 in the data set on sodium channel was 6.00 to 7.00. Further, in data set [1], the pKi is more than 6.52. Besides, the inhibition at 10 µM at CYP3A4 is less than 50%.

For `O=C1N(Cc2ccccn2)c2ccccc2[C@@]12COc1cc3c(cc12)CCO3` [Example 5.4, (3R)-1-(pyridin-2-ylmethyl)-5,6-dihydrospiro[benzo[1,2-b:5,4-b′]difuran-3,3′-indol]-2′(1′H)-one], the melting point lay within 154 to 156 °C. For the same compound, the pIC50 in the data set on sodium channel is 5.00 to 6.00. In addition, in data set [1], the pKi was less than 6.52. In addition, the inhibition at 10 µM at CYP3A4 is less than 50%.

`O=C1N(Cc2ccc(C(F)(F)F)o2)c2ccccc2[C@@]12COc1cc3c(cc12)CCO3` [Example 5.5, (3R)-1′-{[5-(trifluoromethyl)furan-2-yl]methyl}-5,6-dihydrospiro[benzo[1,2-b:5,4-b′]difuran-3,3′-indol]-2′(1′H)-one] gave a melting point of 68 to 70 °C. Besides, the pIC50 in the data set on sodium channel is 5.00 to 6.00. This compound had a pKi in data set [1] of less than 6.52. Further, the inhibition at 10 µM on CYP3A4 is more than 50%.

With `O=C1N(Cc2ccccn2)c2ccccc2[C@]12COc1cc3c(cc12)CCO3` [Example 5.6, (3S)-1′-(pyridin-2-ylmethyl)-5,6-dihydrospiro[benzo[1,2-b:5,4-b′]difuran-3,3′-indol]-2′(1′H)-one], the melting point was in the range of 84 to 85 °C. In addition, the pIC50 in the data set with sodium channel is 7.00 to 9.00. Also, in data set [1], the pKi was less than 6.52. Also, the inhibition at 10 µM on CYP3A4 is less than 50%.

Take `O=C1N(Cc2ccc(C(F)(F)F)o2)c2ccccc2[C@]12COc1cc3c(cc12)CCO3` [Example 5.7, (3S)-1′-{[5-(trifluoromethyl)furan-2-yl]methyl}-5,6-dihydrospiro[benzo[1,2-b:5,4-b′]difuran-3,3′-indol]-2′(1′H)-one]: the melting point lay in the range of 64 to 65 °C. Moreover, the pIC50 in the data set with sodium channel was 7.00 to 9.00. The pKi in data set [1] was more than 6.52. In addition, on CYP3A4, the inhibition at 10 µM is more than 50%.

Consider `COc1ncc(CN2C(=O)[C@@]3(COc4cc5c(cc43)OCCO5)c3ccccc32)cn1` [Example 5.17, (8S)-1′-[(2-methoxypyrimidin-5-yl)methyl]-2,3-dihydrospiro[furo[2,3-g][1,4]benzodioxine-8,3′-indol]-2′(1′H)-one], for which the melting point fell in the range of 102 to 104 °C. The negative-log IC50 (pIC50) in the data set on sodium channel was 7.00 to 9.00. In data set [1], the pKi was more than 6.52. Besides, the inhibition at 10 µM on CYP3A4 is less than 50%.

Regarding `O=C1N(Cc2ncccn2)c2ccccc2[C@]12COc1cc3c(cc12)OCCO3` [Example 5.18, (8S)-1′-(pyrimidin-2-ylmethyl)-2,3-dihydrospiro[furo[2,3-g][1,4]benzodioxine-8,3′-indol]-2′(1′H)-one], the melting point lay in the range of 210 to 212 °C. Also, the pIC50 in the data set on sodium channel was 7.00 to 9.00. The compound also gave a pKi in data set [1] of more than 6.52. In addition, the inhibition at 10 µM on CYP3A4 was less than 50%.

As to `CCCCCN1C(=O)C2(COc3cc4c(cc32)OCCO4)c2ccccc21` (stereo not shown) [Example 8.4, 1′-pentyl-2,3-dihydrospiro[furo[2,3-g][1,4]benzodioxine-8,3′-indol]-2′(1′H)-one], the melting point lay in the range of 129 to 130 °C. Besides, in the data set with sodium channel, the negative logarithm of the IC50 (pIC50) is 7.00 to 9.00. Further, the pKi in data set [1] was more than 6.52. Besides, the inhibition at 10 µM at CYP3A4 is more than 50%.

`O=C1N(C[C@H]2COCCO2)c2ccccc2[C@@]12COc1cc3c(cc12)OCCO3` [Example 8.6, (8R)-1′-[(2S)-1,4-dioxan-2-ylmethyl]-2,3-dihydrospiro[furo[2,3-g][1,4]benzodioxine-8,3′-indol]-2′(1′H)-one]: the melting point fell in the range of 207 to 209 °C. The negative logarithm of the IC50 (pIC50) with sodium channel was 5.00 to 6.00. The negative logarithm of the Ki (pKi) in data set [1] was less than 6.52. For the same compound, the inhibition at 10 µM at CYP3A4 is less than 50%.

`O=C1N(C[C@@H]2COCCO2)c2ccccc2[C@]12COc1cc3c(cc12)OCCO3` [Example 8.8, (8S)-1′-[(2R)-1,4-dioxan-2-ylmethyl]-2,3-dihydrospiro[furo[2,3-g][1,4]benzodioxine-8,3′-indol]-2′(1′H)-one] gave a melting point of 207 to 210 °C. The pIC50 with sodium channel was 7.00 to 9.00. In data set [1], this compound showed a pKi of more than 6.52. The inhibition at 10 µM on CYP3A4 was less than 50%.

Consider `O=C1N(C[C@@H]2COCCO2)c2ccccc2C12COc1cc3c(cc12)OCCCO3` (stereo partly drawn) [Example 8.12, 1′-[(2R)-1,4-dioxan-2-ylmethyl]-3,4-dihydro-2H-spiro[furo[2,3-h][1,5]benzodioxepine-9,3′-indol]-2′(1′H)-one], for which the melting point is 144 to 147 °C. In addition, the pIC50 in the data set on sodium channel is 6.00 to 7.00. The pKi in data set [1] is less than 6.52. Also, the inhibition at 10 µM at CYP3A4 is less than 50%.

`Cc1noc2cc3c(cc12)C1(CO3)C(=O)N(Cc2ccc(C(F)(F)F)o2)c2ccccc21` (stereo not shown) [Example 9, 3-methyl-1′-{[5-(trifluoromethyl)furan-2-yl]methyl}spiro[furo[3,2-f][1,2]benzisoxazole-5,3′-indol]-2′(1′H)-one]: the melting point lay within 111 to 112 °C. The negative-log IC50 (pIC50) in the data set with sodium channel is 7.00 to 9.00. Moreover, the pKi in data set [1] was more than 6.52. Besides, the inhibition at 10 µM at CYP3A4 was more than 50%.

The compound `O=C1N(Cc2ccncn2)c2ccccc2C12COc1cc3c(cc12)CCO3` (stereo not shown) [Example 9.6, 1-(pyrimidin-4-ylmethyl)-5,6-dihydrospiro[benzo[1,2-b:5,4-b′]difuran-3,3′-indol]-2′(1′H)-one] showed a melting point of 158 to 160 °C. For the same compound, the pIC50 with sodium channel was 7.00 to 9.00. The same compound had a pKi in data set [1] of less than 6.52. On CYP3A4, the inhibition at 10 µM was less than 50%.

Consider `COCCOCCN1C(=O)C2(COc3cc4c(cc32)OCCO4)c2ccccc21` (stereo not shown) [Example 9.20, 1′-[2-(2-methoxyethoxy)ethyl]-2,3-dihydrospiro[furo[2,3-g][1,4]benzodioxine-8,3′-indol]-2′(1′H)-one], for which the melting point lay within 90 to 91 °C. The pIC50 with sodium channel is 7.00 to 9.00. This compound also gave a pKi in data set [1] of more than 6.52. Further, at CYP3A4, the inhibition at 10 µM was less than 50%.

The record behind these values is US8263606B2 (Xenon Pharmaceuticals Inc., priority 2008, dated 2012).
